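Growth conditions: 96-well plates. Treatment: test compound, 48 hours, 5 concentrations. Analysis: linear interpolation between bracketing concentrations; unreached endpoints set to highest concentration. GI50 is the concentration that inhibits growth by half. The concentration for full growth arrest is given as TGI.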 Where a SMILES comes first, the peptide text is derived from it. [ ]: non-standard residue; d: D form. The star is where a group is joined. ξ: configuration not given here. ξF = NC(Cc1ccccc1)C(=O)O; Cbz = O=C(OCc1ccccc1)*; Aib = CC(C)(N)C(=O)O
How the values were obtained:
Assay in all cases: NCI tumour cell line growth inhibition, 48 h
U251 CNS = test system: U251 CNS
SK-MEL-2 melanoma = test system: SK-MEL-2 melanoma
SF-268 CNS = test system: SF-268 CNS
HT29 colon = test system: HT29 colon
SW-620 colon = test system: SW-620 colon
K-562 leukemia = test system: K-562 leukemia
CAKI-1 renal = test system: CAKI-1 renal
HCC-2998 colon = test system: HCC-2998 colon
RXF 393 renal = test system: RXF 393 renal
SF-539 CNS = test system: SF-539 CNS

Row | Compound | TGI (U251 CNS) [µM] | TGI (SK-MEL-2 melanoma) [µM] | TGI (SF-268 CNS) [µM] | TGI (HT29 colon) [µM] | TGI (SW-620 colon) [µM] | TGI (K-562 leukemia) [µM] | TGI (CAKI-1 renal) [µM] | TGI (HCC-2998 colon) [µM] | TGI (RXF 393 renal) [µM] | GI50 (U251 CNS) [µM] | GI50 (SK-MEL-2 melanoma) [µM] | GI50 (SF-268 CNS) [µM] | GI50 (HT29 colon) [µM] | GI50 (SW-620 colon) [µM] | GI50 (K-562 leukemia) [µM] | GI50 (SF-539 CNS) [µM] | TGI (SF-539 CNS) [µM] | GI50 (CAKI-1 renal) [µM] | GI50 (HCC-2998 colon) [µM] | GI50 (RXF 393 renal) [µM]
1 | NCCSCc1ccccc1Cl | > 100 | 87.5 | > 100 | > 100 | > 100 | 76.6 | > 100 | 38.7 | > 100 | – | – | – | – | – | – | – | – | – | – | –
2 | COc1cc(-c2n/c(=C\c3c(O)[nH]c4cc(Cl)ccc34)cc3c2=Nc2ccccc2-3)cc(OC)c1OC | 3.36 | 12.3 | 10.5 | 7.05 | 54.9 | 48.6 | 60 | > 100 | 7.34 | 1.71 | 2.51 | 2.72 | 2.67 | 4.07 | 3.57 | 11.2 | 30.8 | 10.9 | 7.32 | 2.37
3 | CCOc1ccc(N=NS(=O)(=O)O)cc1 | > 100 | > 100 | > 100 | > 100 | > 100 | > 100 | > 100 | > 100 | > 100 | – | – | – | – | – | – | – | > 100 | – | – | –
4 | N=C(N)c1ccc(-c2ccc(-c3cccs3)s2)s1 | – | – | 3.48 | – | 3.21 | – | 2.95 | 2.48 | 0.924 | – | – | 1.79 | – | 1.63 | – | 1.58 | 2.96 | 1.57 | 1.13 | 0.29
5 | Nc1c(-c2ccccc2[N+](=O)[O-])nc2ccccn12 | > 100 | > 100 | > 100 | > 100 | > 100 | > 100 | – | > 100 | > 100 | – | – | – | – | – | – | – | – | – | – | –
6 | CC(=O)ON1C(=O)c2cccc3cccc(c23)C1=O | > 100 | 67.6 | > 100 | > 100 | > 100 | > 100 | 49 | > 100 | 25.5 | – | – | – | – | – | – | – | 48.3 | – | – | –
7 | Cc1ccc(N2CCN(CCC(=O)O)CC2)cc1 | > 100 | > 100 | > 100 | > 100 | > 100 | > 100 | > 100 | – | > 100 | – | – | – | – | – | – | – | > 100 | – | – | –
8 | COC(=O)C(C)(C)NC(=O)C(Cc1ccccc1)NC(=O)C(C)(C)NC(=O)OCc1ccccc1 (stereo not drawn) (Cbz-[Aib]-[ξF]-[Aib]-OMe) | > 100 | – | > 100 | > 100 | > 100 | > 100 | > 100 | > 100 | – | – | – | – | – | – | – | – | – | – | – | –
9 | Nc1nc2ccc(OCC(O)CN3CCCCC3)cc2[n+]([O-])n1 (stereo not drawn) | > 100 | > 100 | – | > 100 | > 100 | > 100 | > 100 | > 100 | > 100 | – | – | – | – | – | – | – | > 100 | – | – | –
10 | Cc1ccc(C(O)(c2ccc(C)cc2)c2ccccn2)cc1 | > 100 | > 100 | > 100 | > 100 | > 100 | > 100 | > 100 | > 100 | – | – | – | – | – | – | – | – | > 100 | – | – | –
11 | CCCCOCc1cc(CN2CCN(C)CC2)c(O)c2ncccc12 | 44.4 | > 100 | > 100 | > 100 | 81.4 | > 100 | > 100 | 90.2 | > 100 | – | – | – | – | – | – | – | 76.7 | – | – | –
12 | COc1cc(Nc2nnc3n2S(=O)(=O)c2cc(C)c(Cl)cc2S3)cc(OC)c1 | 29.2 | – | 50.7 | > 100 | – | > 100 | 79 | > 100 | 49.3 | – | – | – | – | – | – | – | 6.31 | – | – | –
13 | C(=N\OCCc1ccccc1)/c1cccnc1 | > 100 | > 100 | > 100 | > 100 | > 100 | > 100 | – | > 100 | > 100 | – | – | – | – | – | – | – | > 100 | – | – | –
14 | c1cncc(O[Si](Oc2cccnc2)(Oc2cccnc2)Oc2cccnc2)c1 | > 100 | > 100 | – | > 100 | > 100 | – | > 100 | > 100 | > 100 | – | – | – | – | – | – | – | > 100 | – | – | –
15 | CC(C)(CCCCC(C)(C)C1NC(=O)N1)C1NC(=O)N1 | > 10 | > 10 | > 10 | > 10 | > 10 | > 10 | > 10 | > 10 | > 10 | – | – | – | – | – | – | – | > 10 | – | – | –
